Where “and” joins values, the source holds several entries; their conditions need not be identical. Equal values may be shown once. Read-outs that look alike come from different tables or passages of the source.
Experiments:
[1] = test system: P. falciparum 3D7 parasites; test: P. falciparum parasite viability assay (LDH); type: cell-based
Protocol: A modified version of the lactate dehydrogenase (LDH) assay described by [Gamo et al. […] Compounds were pre-dispensed in 384-well plates, RPMI/Albumax growth media was added, and P. falciparum inoculated. Plates were incubated for 72 h and then frozen at −80 °C overnight. LDH activity was quantified with the modified cofactor 3-acetylpyridine adenine dinucleotide (APAD) (Sigma Aldrich) by measuring absorbance of the tetrazolium indicator nitro blue tetrazolium (NBT) (Sigma Aldrich) at 650 nm. Parasite conditions: […] Growth inhibition assay: […] Intermediate compound dilution plates were prepared by dispensing 5 μL from each well of the compound master plate into 11.5 μL of RPMI/Albumax growth media. Duplicate assay plates (384-well) were then prepared by dispensing 0.5 μL of compound from the intermediate dilution plates into 9.5 μL of RPMI/Albumax growth media. […] The final DMSO concentration was 0.1% (to limit toxicity to parasites). […] Evaluation of parasite growth measuring lactate dehydrogenase (LDH) activity: After 72 h of incubation, plates were frozen at −80 °C overnight and then thawed at room temperature for at least 4 h. […] Plates were shaken to ensure mixing and absorbance at 650 nm was monitored using a PerkinElmer Envision plate reader after 30 min of incubation at room temperature. Data were normalised to percent growth inhibition using positive and negative controls and analyzed using TIBCO Spotfire software.

[2] = Basigin_IC50_Counter_Alpha counterscreen; settings: 11 pt titration; flag (POORFIT given as ~)
Excerpt: Supplement mmc3.xlsx, sheet "Report" | column: Basigin_IC50_Counter_Alpha IC50

[3] = target: P. falciparum Rh5 (Rh5 – basigin interaction) (Plasmodium falciparum, UniProt Q8IFM5); test: biochemical; type: binding; settings: for Rh5 inhibitory activity in the AlphaScreen assay: highest concentration tested 50 μM
P. falciparum Rh5 (Rh5 – basigin interaction), sequence (Q8IFM5 24-526): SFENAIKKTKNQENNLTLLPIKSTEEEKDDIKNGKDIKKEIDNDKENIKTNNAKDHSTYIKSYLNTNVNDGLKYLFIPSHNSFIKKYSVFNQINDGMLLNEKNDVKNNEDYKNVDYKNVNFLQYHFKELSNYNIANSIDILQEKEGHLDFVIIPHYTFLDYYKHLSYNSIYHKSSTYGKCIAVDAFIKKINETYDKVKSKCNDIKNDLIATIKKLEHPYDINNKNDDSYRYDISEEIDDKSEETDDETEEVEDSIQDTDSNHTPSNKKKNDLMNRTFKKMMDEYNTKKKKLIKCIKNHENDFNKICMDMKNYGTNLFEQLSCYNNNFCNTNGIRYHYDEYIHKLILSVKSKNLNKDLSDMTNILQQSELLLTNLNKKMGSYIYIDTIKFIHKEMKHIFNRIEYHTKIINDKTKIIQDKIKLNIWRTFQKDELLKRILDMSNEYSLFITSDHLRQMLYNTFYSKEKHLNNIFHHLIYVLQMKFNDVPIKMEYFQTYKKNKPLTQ

[4] = AlphaScreen TruHits counterscreen assay; settings: for IC50: 11 pt titration, flag (POORFIT given as ~), read-out: Basigin_IC50_Counter_TruHits IC50; for % Inhibition Counter: TruHits counterscreen, single point, 10 μM in duplicate
Protocol: The counterscreen assay was conducted using AlphaScreen TruHits kit (PerkinElmer). Biotinylated acceptor beads and Streptavidin donor beads were both diluted in assay buffer (final concentration of 10 μg/mL). Using the Combi-multidrop, 10 μL of each bead solution (20 μg/mL prepared in assay buffer) was added to every well of the assay plate under subdued lighting. Compound addition and assay readout was performed as described above.

HepG2 cells = test: HepG2 growth inhibition assay; type: cell-based; settings: Homo sapiens, 10-point dilution series, 48 h, Cell Titre-Glo
Protocol: HepG2 cells were cultured in Dulbeccos modified eagle's medium (DMEM) supplemented with 10% fetal calf serum (FCS), in a humidified incubator at 37 °C and 5% CO2. Ten-point compound titration assays were performed by treating cells (1 × 10^3) for 48 h in 384 well tissue culture treated plates (Greiner). Cytotoxicity was determined using Cell Titer Glo (Promega) and calculated as a percentage using DMSO as a positive growth control and 10 μM Bortezomib as a negative growth control. EC50 values were calculated using a 4-parameter log dose, non-linear regression analysis, with sigmoidal dose response (variable slope) curve fit using Graph Pad Prism (version 6.05). 0 and 100 constraint parameters were used for curve fitting. […]

D10-PfPHG parasites = test: Schizont rupture assay; type: cell-based, P. falciparum
Protocol: D10-PfPHG parasites ([Wilson et al., 2010]) were cultured in human O^+ erythrocytes in RPMI-HEPES culture medium (pH 7.4, 50 μg/mL hypoxanthine, 25 mM NaHCO3, 20 μg/mL gentamicin, 0.5% Albumax II (Thermo Fisher Scientific) according to established protocols ([Trager and Jensen, 1976]) and maintained in an atmosphere of 1% O2, 4% CO2 and 95% N2. For assessment of merozoite invasion after schizont rupture, parasites were tightly synchronised to a 4 h window of invasion using heparin ([Boyle et al., 2010]; [Wilson et al., 2015]) and then grown for a further 42 h. Drug treatments were setup at 2–3% parasitaemia and 1% haematocrit in 50 μL volumes with a 1 in 10 dilution of drug added when parasites were 44–48 h post invasion. After 6 h of drug treatment and immediately after invasion was expected to finish, the assays were treated with 5 μg/mL ethidium bromide (EtBr, Bio-Rad) for 5 min prior to flow cytometry assessment of parasitaemia using a Becton Dickinson Accuri. Gating of newly invaded rings, free merozoites and unruptured late stages was achieved as per published methods ([Wilson et al., 2013]).
To determine if the modest activity of pranlukast and analogues in the parasite viability assay was a consequence of invasion inhibition, rather than inhibition at another stage of blood stage parasite development, we performed an assay that measures the effect of compound treatment on P. falciparum D10 asexual stage transition between late schizont and ring stages ([Wilson et al., 2013]). In this assay, highly synchronised mature schizont-stage parasites were incubated with pranlukast and selected analogues at 50 and 100 μM and the transition to newly invaded ring stage parasites was quantified by flow cytometry. In parallel, the rate of schizont rupture and merozoite release was quantified to assess whether any reduction in newly invaded ring stages was due to a block affecting merozoite release or development. […] Neither DMSO (at the maximal concentration used for the drug treatments of 0.1%) or a non-invasion inhibitory mAb control caused a reduction in merozoite invasion. […] […].

P. falciparum D10 = P. falciparum D10 growth inhibition by flow cytometry; type: cell-based; settings: for EC50: Plasmodium falciparum, D10, growth inhibition by flow cytometry, 12-point dilution series, 72 h
Protocol: Pranlukast and selected analogues were then evaluated in a P. falciparum parasite viability assay. For this assay, we followed the procedure described by [Gamo et al. (2010)], that used lactate dehydrogenase (LDH) as a readout for parasite viability. In this assay, 3D7 parasites were incubated over 72 h in the presence of increasing concentrations of compounds. […]. For a comparison, selected compounds were incubated in the presence of P. falciparum D10 parasites for 72 h (Table 1, Fig. S14) and growth inhibition measured by flow cytometry. […].

[5] = Plasmodium falciparum, 3D7, 72 h, LDH activity, 10-point dilution series, 72 h, read-out: P. falciparum 3D7 EC50
[6] = 11 pt titration of the 45 hits, flag (POORFIT given as ~), two lines per compound, read-out: Basigin_IC50_Assay_Alpha IC50
[7] = LDH activity, 10-point dilution series, 72 h, read-out: P. falciparum 3D7 EC50
[8] = 50 and 100 μM, 6 h, flow cytometry

Row | Compound | EC50 [1, 5] | IC50 [3] | EC50 (HepG2 cells) | free merozoite numbers (D10-PfPHG parasites; [8]) | merozoite invasion (newly invaded early ring stages) (D10-PfPHG parasites; [8]) | EC50 (P. falciparum D10) | other results
1 | C[C@H]1CCC/C=C/[C@@H]2C[C@H](O)C[C@H]2[C@H](O)/C=C/C(=O)O1 [Brefeldin A, reference compound] | 3.5 µM | – | – | – | – | – | –
2 | CCCN1CCc2cccc3c2[C@H]1Cc1ccc(O)c(O)c1-3 [WEHI-1215034] | – | – | – | – | – | – | IC50 [2]: 20 µM and 22.9 µM; IC50 [3, 6]: 1.56 µM and 2.23 µM; IC50 [4]: > 25 µM
3 | O=C(Nc1cccc2c(=O)cc(-c3nn[nH]n3)oc12)c1ccc(OCCCc2ccccc2)cc1 [Compound 25, N-(4-Oxo-2-(2H-tetrazol-5-yl)-4H-chromen-8-yl)-4-(3-phenylpropoxy)benzamide] | 7 µM | 20 µM | > 50 µM | – | – | – | EC50 [1, 7]: 7.3 µM
4 | CCCN1CCc2cc(O)cc3c2[C@H]1Cc1ccc(O)c(O)c1-3 [WEHI-1215052] | – | – | – | – | – | – | IC50 [2]: > 25 µM; IC50 [3, 6]: 7.45 µM and 8.43 µM; IC50 [4]: > 25 µM
5 | COc1cc(C(=O)NS(=O)(=O)c2ccccc2C)ccc1Cc1cn(C)c2ccc(NC(=O)OC3CCCC3)cc12 [zafirlukast, reference compound] | 6 µM | 17 µM | > 50 µM | – | – | – | Rh5 inhibitory activity in the AlphaScreen assay [3]: possess inhibitory activity; EC50 [1, 7]: 5.9 µM
6 | heparin | – | – | – | not free merozoites | reduction in the number of early rings stage parasites | – | –
7 | CCCc1c(OCC(O)COc2ccc3c(=O)cc(C(=O)O)oc3c2CCC)ccc(C(C)=O)c1O (stereo not shown) [FPL 55712, reference compound] | – | – | > 50 µM | – | – | – | EC50 ([1]; Plasmodium falciparum, 3D7, 72 h, read-out: P. falciparum 3D7 EC50): > 50 µM
8 | CCOC(=O)c1cc(=O)c2cccc(NC(=O)c3ccc(OCCCc4ccccc4)cc3)c2o1 [Compound 13, Ethyl 4-oxo-8-(4-(3-phenylpropoxy)benzamido)-4H-chromene-2-carboxylate] | > 50 µM | > 50 µM | > 50 µM | no reduction in free merozoite numbers | minimal inhibition of merozoite invasion | > 50 µM | –
9 | CCN(CC)CCCC(C)Nc1ccnc2cc(Cl)ccc12 (stereo not shown) [Chloroquine, reference compound] | – | – | – | – | – | – | EC50 ([1]; Plasmodium falciparum, 3D7, 72 h, read-out: P. falciparum 3D7 EC50, control, LDH activity, 72 h): 0.018 µM
10 | COc1ccc(C(=O)Nc2cccc3c(=O)cc(-c4nn[nH]n4)oc23)cc1 [Compound 24, 4-Methoxy-N-(4-oxo-2-(2H-tetrazol-5-yl)-4H-chromen-8-yl)benzamide] | 25 µM | > 50 µM | > 50 µM | – | – | – | –
11 | Oc1c(Cl)cc(Cl)c(Cl)c1Cc1c(O)c(Cl)cc(Cl)c1Cl [WEHI-0104268, Hexachlorophene, reference compound] | – | – | – | – | – | – | % Inhibition Counter [4]: 28.8475%
12 | COc1ccc(C(=O)Nc2cccc3c(=O)cc(C(=O)O)oc23)cc1 [Compound 21, 8-(4-Methoxybenzamido)-4-oxo-4H-chromene-2-carboxylic acid] | > 50 µM | > 50 µM | > 50 µM | – | – | – | Rh5 inhibitory activity in the AlphaScreen assay [3]: No activity
13 | CCC(CC)(CC(=O)Nc1cccc(/C=C/c2nc(C3CCC3)cs2)c1)C(=O)O [cinalukast, reference compound] | – | > 50 µM | > 50 µM | similarly reduced numbers of free merozoites | reduction in numbers of merozoites that had invaded and formed early ring stages | 32 µM | Rh5 inhibitory activity in the AlphaScreen assay [3]: did not show Rh5 inhibitory activity
14 | O=C([O-])c1ccccc1-c1c2cc(Br)c(=O)cc-2oc2[c]([Hg+])c([O-])c(Br)cc12.[Na+].[Na+].[OH-] [WEHI-1216497, Merbromin, reference compound] | – | – | – | – | – | – | % Inhibition Confirmation ([3]; confirmation, single point, 10 μM in duplicate): 100.385%; % Inhibition Pilot ([3]; primary screen, 20 μM): 100.87%; % Inhibition Counter [4]: 29.2235%
15 | O=C(Nc1cccc2c(=O)cc(C(=O)O)oc12)c1ccc(OCCCCc2ccccc2)cc1 [Compound 18, 4-Oxo-8-(4-(4-phenylbutoxy)benzamido)-4H-chromene-2-carboxylic acid] | > 50 µM | 21 µM | > 50 µM | similarly reduced numbers of free merozoites | reduction in numbers of merozoites that had invaded and formed early ring stages | 42 µM | –
16 | O.c1cnc2c(c1)ccc1cccnc12 [WEHI-1215482, 1,10-Phenanthroline monohydrate, reference compound] | – | – | – | – | – | – | inhibition at 10 µM ([3]; read-out: % Inhibition Confirmation): 99.6%; % Inhibition Counter [4]: 2.663%
17 | O=C(Nc1cccc2c(=O)cc(C(=O)O)oc12)c1ccc(OCCc2ccccc2)cc1 [Compound 16, 4-Oxo-8-(4-phenethoxybenzamido)-4H-chromene-2-carboxylic acid] | 40 µM | 40 µM | > 50 µM | – | substantial reduction in the numbers of merozoites that had invaded and formed early ring stages | 6.7 µM | fold more active against the D10 strain than the 3D7 strain (P. falciparum D10; EC50 D10 vs 3D7): 5 fold; EC50 [1, 7]: 37 µM; free merozoite numbers (D10-PfPHG parasites; lowest concentration tested (50 μM)): minimal loss in free merozoite numbers
18 | O=C(Nc1cccc2c(=O)cc(C(=O)O)oc12)c1ccc(OCCCc2ccccc2)cc1 [Compound 17, 4-Oxo-8-(4-(3-phenylpropoxy)benzamido)-4H-chromene-2-carboxylic acid] | 15 µM | 24 µM | > 50 µM | no reduction in free merozoite numbers | minimal inhibition of merozoite invasion | 19 µM | –
19 | O=C(O)c1ccccc1Nc1cccc(OCc2ccc3ccccc3n2)c1 [SR2540, reference compound] | – | > 50 µM | > 50 µM | similarly reduced numbers of free merozoites | reduction in numbers of merozoites that had invaded and formed early ring stages | 6.1 µM | increase in unruptured schizonts (D10-PfPHG parasites; at the concentrations tested (50 and 100 μM)): > 40%
20 | cDPCP [WEHI-1215640, reference compound] | – | – | – | – | – | – | % Inhibition Counter [4]: 2.1075%

Reference: publication PMC7645381, “Development and application of a high-throughput screening assay for identification of small molecule inhibitors of the P. falciparum reticulocyte binding-like homologue 5 protein” (International Journal for Parasitology: Drugs and Drug …, 2020)
